# Literature values as cited in patent US8309490B2, “Low VOC and stable plant growth regulator liquid and granule compositions” (Valent BioSciences Corporation, priority 2009, dated 2012).
# Settings: at 25° C.
compound,measurement,value
"O=C(Nc1ccccc1)Nc1ccnc(Cl)c1 [CPPU, forchlorfenuron]",water solubility,39 ppm
